A short description of this series: Gelation of acyline in pH 6.8 buffer with sodium caprate and Tween 80 (filtration, HPLC). It counts as physicochemical. As for the experimental part:
Different concentrations of acyline composition are prepared by adding acyline to pH 6.8 buffer solution either at room temperature or 37° C. All acyline solutions contain 0.6 mg/mL sodium caprate (sodium caprate is referred as C10 in the figures). All samples are centrifuged and filtered prior to analysis. Samples are analyzed by reverse phase HPLC with UV detection. 10 mg acyline is transferred into […] volumetric flask. A pH 6.8 buffer solution is preheated to 37° C. Then, 100 mL pre-heated buffer solution and 0.6 mg/mL sodium caprate is added to the flask to prepare a 0.1 mg/mL acyline sample. In a similar manner, Tween 80 is added to prepare a 0.1 mg/mL acyline solution with 1% Tween 80. Samples are shaken in a temperature controlled water bath at 37° C. 5 mL samples are taken at 1, 5, 10, 15, 20, 30 and 120 minutes after mixing acyline with the buffer solution. Samples are filtered immediately through 0.45 μm filters and the first 3 mL is discarded. Filtered samples are analyzed, undiluted, by reverse phase HPLC with UV detection. All samples are prepared in duplicate and the concentration was obtained for the analysis from the mean of the duplicates. The result of comparison of 1% and 0% Tween 80 at 0.1 mg/mL acyline sample is graphically recorded in FIG. 5. […] A similar experimental procedure as Example 4 is used to prepare acyline sample for example 5. The result of comparison of 5 mg/mL, 1.0 mg/mL, 0.1 mg/mL, and 0.1% Tween in phosphate buffer containing 0.6 mg/mL of sodium caprate and 0.1 mg/mL acyline is graphically recorded in FIG. 6. […] A similar experimental procedure as Example 4 is used to prepare acyline sample for example 6. The result of comparison of 1% and 1 mg/mL Tween 80 in 0.1 and 0.01 mg/mL acyline sample is graphically recorded in FIG. 7. […] A similar experimental procedure as Example 4 is used to prepare acyline sample for example 7. The result of comparison of 0.01 mg/mL acyline samples having 0.1%, 0.5% and 1% Tween 80 is graphically recorded in FIG. 8.

Entries after “also recorded” stand apart in the source; their conditions may differ. Non-standard residues stand in square brackets, D forms with d. Residues, ends and D or L forms follow the SMILES beside them. dPhe(4-NH2) = Nc1ccc(C[C@@H](N)C(=O)O)cc1; dPhe(4-Cl) = N[C@H](Cc1ccc(Cl)cc1)C(=O)O; Phe(4-NH2) = Nc1ccc(C[C@H](N)C(=O)O)cc1; d2Nal = N[C@H](Cc1ccc2ccccc2c1)C(=O)O; Lys(iPr) = CC(C)NCCCC[C@H](N)C(=O)O; d3Pal = N[C@H](Cc1cccnc1)C(=O)O

In the case of `CC(=O)Nc1ccc(C[C@H](NC(=O)[C@H](CO)NC(=O)[C@@H](Cc2cccnc2)NC(=O)[C@@H](Cc2ccc(Cl)cc2)NC(=O)[C@@H](Cc2ccc3ccccc3c2)NC(C)=O)C(=O)N[C@H](Cc2ccc(NC(C)=O)cc2)C(=O)N[C@@H](CC(C)C)C(=O)N[C@@H](CCCCNC(C)C)C(=O)N2CCC[C@H]2C(=O)N[C@H](C)C(N)=O)cc1` [acyline, Ac-D2Nal-D4Cpa-D3Pal-Ser4Aph(Ac)-D4Aph(Ac)-Leu-ILys-Pro-DAla-NH2] (Ac-[d2Nal][dPhe(4-Cl)][d3Pal]S[Phe(4-NH2)](Ac)[dPhe(4-NH2)](Ac)L[Lys(iPr)]P[dA]-NH2), the gelation of acyline result is “significantly reduces the gelation” (0.01 mg/mL acyline, 0.6 mg/mL sodium caprate, 1% Tween 80); “successfully reduces the gelation; also recorded: completely inhibit the gelation” (0.1 mg/mL acyline, 0.6 mg/mL sodium caprate, 1% Tween 80); “insufficient to reduce the gelation” (0.1 mg/mL acyline, 37° C., 0.6 mg/mL sodium caprate alone (0% Tween 80)).
